Experimental data as given in patent US20240238445A1, “INHIBITORS AND USES THEREOF” (NEURACLE SCIENCE CO., LTD., priority 2021, published 2024).
Square brackets hold non-standard residues; d marks the D form. Ends that are not written are not given here.

Experiments:
[1] = target: interaction between His-TEV LRRC4B and rFAM19A5 (Homo sapiens, UniProt Q7Z5A7); assay: Competitive inhibition assay (IC50), plate coated with His-TEV LRRC4B; format: binding
Procedure: To further assess the inhibitory effect of the FB-21 mutants, the ability of additional FB-21 mutants described in Example 9 were tested for their ability to inhibit the interaction between FAM19A5 protein and LRRC4B protein. Briefly, plates were coated with 100 nM of His-TEV LRRC4B and then 1 ng/mL of rFAM19A5 was incubated at 37° C. in the presence of increasing concentrations of the FB-21 peptide fragments (0.3, 1, 3, 10, 30, 100, 300, 1000, 3000 and 10000 nM). The LRRC4B-bound FAM19A5 levels were measured using HRP-conjugated 1-65 SS01 antibody. As shown in FIG. 22B (see Table 15 for IC50), most (if not all) of the FB-21 mutants had improved ability in inhibiting the interaction between LRRC4B and recombinant FAM19A5 protein.
Next, to assess whether other properties of the polypeptides described herein can be improved (e.g., solubility, prevention of degradation from protease and peptidase, and in vivo administration), the following additional FB-21 peptide mutants were constructed and tested for their ability to inhibit the interaction between FAM19A5 protein and LRRC4B: (1) d-form FB-21 peptide (“dFB-21”), (2) d-form FB-21 peptide with juxta-membrane (JM) sequence (“dFB-JM-31”), (3) d-form FB-21 peptide with BBB penetrating sequence at each end of the sequence (“dFB-BBB-39”), and (4) d-form FB-21 mutant peptide with DY replacement and additional JM sequence (“dFB-DY-JM31”). The sequence for d-form FB-21 peptide is set forth in SEQ ID NO: 153 (nYTYFTTVTVETLETQPGEEa; wherein the lowercase amino acids represent D-form of the amino acid, and the uppercase amino acids represent L-form of the amino acid). The sequence for dFB-BBB-39 is set forth in SEQ ID NO: 154 (n[…]l; wherein the lowercase amino acids represent D-form of the amino acid, and the uppercase amino acids represent L-form of the amino acid). The sequence for dFB-JM-31 is set forth in SEQ ID NO: 155 (n[…]a; wherein the lowercase amino acids represent D-form of the amino acid, and the uppercase amino acids represent L-form of the amino acid). The sequence for dFB-DY-JM31 is set forth in SEQ ID NO: 156 (n[…]a; wherein the lowercase amino acids represent D-form of the amino acid, and the uppercase amino acids represent L-form of the amino acid). The overall experimental methods were the same as those described immediately above.

FAM19A5 protein [2] = target: T1, FAM19A5 protein (Homo sapiens, UniProt Q7Z5A7); assay: ELISA binding of recombinant FAM19A5 to coated hFc-conjugated LRRC4 family ectodomains, fragments or synthetic peptides; details: for binding to FAM19A5 protein (ELISA, in words): coated 100 nM/well, FAM19A5 up to 10 nM
Procedure: Next, to confirm the above co-immunoprecipitation results, an ELISA assay was used to measure the binding of the FAM19A5 protein to either the full-length ectodomain of members of LRRC4 protein family or various LRRC4B ectodomain protein fragments. Specifically, an ELISA plate was coated with one of the following LRRC4B ectodomain protein, which was conjugated to human Fc (100 nM/well): (1) full-length ectodomain of LRRC4 protein (amino acid residues 39-527 of SEQ ID NO: 1) (SEQ ID NO: 4); (2) full-length ectodomain of LRRC4B protein (amino acids 36-576 of SEQ ID NO: 2; i.e., construct #7 in Table 6) (SEQ ID NO: 5); (3) full-length ectodomain of LRRC4C protein (amino acids 45-527 of SEQ ID NO: 3) (SEQ ID NO: 6); (4) LRRC4B ectodomain fragment (amino acids 453-576 of SEQ ID NO: 2; i.e., construct #11 in Table 6) (SEQ ID NO: 7); (5) LRRC4B ectodomain fragment (amino acids 484-576 of SEQ ID NO: 2; i.e., construct #12 in Table 6) (SEQ ID NO: 8); (6) LRRC4B ectodomain fragment (amino acids 482-576 of SEQ ID NO: 2) (SEQ ID NO: 9); (7) LRRC4B ectodomain fragment (amino acids 482-497 of SEQ ID NO: 2) (SEQ ID NO: 10); and (8) LRRC4B ectodomain fragment (amino acids 498-576 of SEQ ID NO: 2; i.e., construct #13 in Table 6) (SEQ ID NO: 11). Then, recombinant FAM19A5 proteins (0.005, 0.01, 0.025, 0.05, 0.1, 0.25, 0.5, 1, 2.5, 5, and 10 nM) were added to the relevant wells, and the plates were incubated at 37° C. for 1 hour. Afterwards, the amount of LRRC4B-bound FAM19A5 protein was detected using HRP-conjugated anti-FAM19A5 (1-65) antibody.
As further confirmation, three synthetic polypeptides comprising amino acids 484-497 of SEQ ID NO: 2 (i.e., YTYFTTVTVETLET; SEQ ID NO: 65) were constructed: (1) FB-16 (GYTYFTTVTVETLETQ; SEQ ID NO: 17), (2) FB-20 ([…]; SEQ ID NO: 18), and (3) FB-28 ([…]; SEQ ID NO: 19). The peptides differed in their total length. The ability of these polypeptides to bind to recombinant FAM19A5 protein was assessed using an ELISA assay as described above.

[3] = system: mouse primary cortical neurons; assay: Neurite growth of mouse primary cortical neurons in vitro; format: cell-based; details: treated days 1 and 2, assessed day 3, anti-beta-tubulin III; LRRC4B fragment 0.006 to 60 nM; versus control
Procedure: Next, primary cortical neurons (day 1 postnatal) were cultured in vitro with varying concentrations (0.006 to 60 nM) of the LRRC4B (453-576) protein fragment (i.e., amino acid residues 453-576 of SEQ ID NO: 2; SEQ ID NO: 7), and then at day 3 post-initial culture, the effect on neurite growth was assessed by immunostaining the cells with anti-beta-tubulin III antibody. Cells cultured with DMSO (“Veh”) were used as control.
Mouse hippocampal neurons were treated with LRRC4B peptides at 1 and 2 DIV to determine neurite growth. It was measured by using 3 different parameters, which are total neurites length, number of primary and secondary neurites. After the neurons were stained with beta-tubulin III at 3 DIV, neurites length and branch points were measured using Fiji (Image J, NIH, Bethesda). Individual neurons were selected by hand and these parameters were counted using the Simple neurite tracer plugin. Mouse spinal motor neurons sampled at postnatal day 1 were treated with 10 nM of NS101 and LRRC4B-peptides (dFB-dWY-JM31 and dFB-DY-JM31) at 1 and 2 DIV and immunostained with Tau-5 antibody at 3 DIV. Total neurite length and number of somas in images were measured by Neurphology Image J plugin.

[4] = target: hFc-fused hLRRC4B and FAM19A5 complex formation (Homo sapiens, UniProt Q7Z5A7); assay: Competitive inhibition assay (IC50), plate coated with LRRC4B(453-576, TT/TT)-hFc; format: binding; details: Table 14; LRRC4B(453-576, TT/TT)-hFc 100 nM coat; peptide 0.03-1000 nM; read-out: IC50 (nM), Inhibition on Complex Formulation between human LRRC4B protein and recombinant FAM19A5 protein (1 ng/mL)
Procedure: The in silico analysis provided in Example 9 highlighted that certain T12 and L13 double mutants might be important in improving the binding affinity of the polypeptides of the present disclosure to the FAM19A5 protein. Therefore, the ability of both the wild-type FB-21 peptide (which is the same as the FB-20 peptide described herein except that the FB-21 peptide additionally contains an alanine at the C-terminus) and several FB-21 mutants were tested for their inhibitor effect on hFc-fused hLRRC4B and FAM19A5 complex formation. Briefly, plate was coated with 100 nM of LRRC4B(453-576, TT/TT)-hFc and then 1 ng/ml of rFAM19A5 was incubated at 37° C. in the presence of increasing concentrations of the different FB-21 peptide fragments (0.03, 0.1, 0.3, 1, 3, 10, 30, 100, 300 and 1000 nM). The LRRC4B-bound FAM19A5 levels were measured using HRP-conjugated 1-65 antibody.

FAM19A5 protein [5] = target: T1, FAM19A5 protein; assay: Co-immunoprecipitation of FLAG-tagged LRRC4 family deletion constructs/fragments with recombinant FAM19A5 in HEK293 cells; format: binding; details: HEK293 cells expressing FLAG-tagged construct, recombinant FAM19A5 1 μM 30 minutes; IP anti-FLAG, blot anti-FAM19A5 (3-2)
Procedure: To understand the interaction between FAM19A5 and members of the LRRC4 protein family, HEK293 cells were modified to express a FLAG-tagged member of the LRRC4 protein family, i.e., LRRC4C protein, LRRC4 protein, or LRRC4B protein. Then, the HEK293 cells or primary cortical neurons were treated with recombinant FAM19A5 protein (1 μM) for 30 minutes, and the binding between FAM19A5 protein and the different members of the LRRC4 protein family was assessed using both co-immunoprecipitation and immunofluorescence assays.
For the co-immunoprecipitation assay, cell lysates from the different FAM19A5-treated HEK293 cells were collected and immunoprecipitated with an anti-FLAG antibody, anti-FAM19A5 (1-65) antibody, or a human IgG antibody (control). Immunoprecipitated proteins were immunoblotted with anti-FLAG and anti-FAM19A5 (3-2) antibodies. For the immunofluorescence assay, the HEK293 cells treated with the recombinant FAM19A5 protein were immunostained with anti-FAM19A5 (3-2) (to detect FAM19A5 protein expression) and anti-FLAG antibodies (to detect member of the LRRC4 protein family). The primary cortical neurons treated with the recombinant FAM19A5 protein were immunostained with anti-FAM19A5 (3-2) and anti-LRRC4B antibodies. The nuclei were stained with Hoechst33342 (blue).
To determine the specific motif or domain of the LRRC4B protein that is responsible for the binding to a FAM19A5 protein, various FLAG-tagged LRRC4B deletion constructs were generated (see Table 6 below). HEK293 cells were transfected with the different deletion constructs and then treated with recombinant FAM19A5 protein as described in Example 1. Then, the cell lysates from the different HEK293 cells were immunoprecipitated with the anti-FLAG antibody. The immunoprecipitated proteins were immunoblotted with anti-FLAG and anti-FAM19A5 (3-2) antibodies.
As described in Example 2, all members of the LRRC4 protein family were capable of binding to FAM19A5 protein to varying degrees. Therefore, to compare the bindings domains, the amino acid sequences of the LRRC4B, LRRC4, and LRRC4C proteins were aligned. […] Therefore, to assess whether the corresponding positions of LRRC4 and LRRC4C were important in the binding of these proteins to FAM19A5 protein, cDNAs encoding either (i) LRRC4C protein fragment (amino acids 354-527 of SEQ ID NO: 3; SEQ ID NO: 66) or (ii) LRRC4 protein fragment (amino acids 353-527 of SEQ ID NO: 1; SEQ ID NO: 67) were constructed (see Table 7). HEK293 cells were transfected to express either of the protein fragments and then treated with recombinant FAM19A5 protein as described in Example 1. Then, the cell lysates from the different HEK293 cells were immunoprecipitated with the anti-FLAG antibody. The immunoprecipitated proteins were immunoblotted with anti-FLAG and anti-FAM19A5 (3-2) antibodies.

T1 sequence (Q7Z5A7 44-132): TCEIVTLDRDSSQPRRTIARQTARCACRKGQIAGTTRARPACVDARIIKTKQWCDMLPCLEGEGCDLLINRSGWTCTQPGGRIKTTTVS

GYTYFTTVTVEDYETQPGEE [FB-21 (D12Y13)]
fold more effective in dissociating LRRC4B-FAM19A5 complex formation compared to FB-21 ([1]; from IC50 of Table 15): 2.4 fold
fold more effective in dissociating LRRC4B-FAM19A5 complex formation compared to FB-21 (W12Y13) ([1]; from IC50 of Table 15): 7 fold

GYTYFTTVTVETLETQ [FB-16]
binding to FAM19A5 protein (ELISA, in words) (FAM19A5 protein [2]): able to bind to recombinant FAM19A5 protein with high affinity
neurite growth / neurite outgrowth [3]: Increased neurite outgrowth

GYTYFTTVTVETLETQPGEEA [FB-21 (wild-type)]
IC50 [4]: 11.9 nM
IC50 ([1]; Table 15, His-TEV LRRC4B 100 nM coat, peptide 0.3-10000 nM, read-out: IC50 (nM), Inhibition on Complex Formulation between LRRC4B protein and recombinant FAM19A5 protein (1 ng/ml)): 138 nM

GYTYFTTVTVETLETQPGEKEPPGPTTD [FB-28]
binding to FAM19A5 protein (ELISA, in words) (FAM19A5 protein [2]): able to bind to recombinant FAM19A5 protein with high affinity
neurite growth / neurite outgrowth [3]: Increased neurite outgrowth

nYTYFTTVTVEDYETQPGEEALDEVMKTTKa ([dN]YTYFTTVTVEDYETQPGEEALDEVMKTTK[dA]; also: terminal modifications n and a on first and last residues) [dFB-DY-JM31]
fold more effective in inhibiting complex formation compared to the wild-type FB-21 ([1]; FIG. 22C, D-form amino acids at both termini): 4 fold

B1: LRRC4B (36-576): full-length ectodomain of LRRC4B protein, amino acids 36-576 of SEQ ID NO: 2; FLAG-tagged or conjugated to human Fc (protein)
chain: AGGGGVAVTSAAGGGSPPATSCPVACSCSNQASRVICTRRDLAEVPASIPVNTRYLNLQENGIQVIRTDTFKHLRHLEILQLSKNLVRKIEVGAFNGLPSLNTLELFDNRLTTVPTQAFEYLSKLRELWLRNNPIESIPSYAFNRVPSLRRLDLGELKRLEYISEAAFEGLVNLRYLNLGMCNLKDIPNLTALVRLEELELSGNRLDLIRPGSFQGLTSLRKLWLMHAQVATIERNAFDDLKSLEELNLSHNNLMSLPHDLFTPLHRLERVHLNHNPWHCNCDVLWLSWWLKETVPSNTTCCARCHAPAGLKGRYIGELDQSHFTCYAPVIVEPPTDLNVTEGMAAELKCRTGTSMTSVNWLTPNGTLMTHGSYRVRISVLHDGTLNFTNVTVQDTGQYTCMVTNSAGNTTASATLNVSAVDPVAAGGTGSGGGGPGGSGGVGGGSGGYTYFTTVTVETLETQPGEEALQPRGTEKEPPGPTTDGVWGGGRPGDAAGPASSSTTAPAPRSSRPTEKAFTVPITDVTENALKDLDDVMKTTK
modifications: FLAG tag or human Fc
binding to FAM19A5 protein (co-immunoprecipitation) (FAM19A5 protein [5]): able to bind to the FAM19A5 protein with varying degree
EC50 (FAM19A5 protein [2]; hFc-conjugated ectodomain coated 100 nM/well, FAM19A5 0.005-10 nM, 37° C. 1 hour): 0.64 nM
